Test results as given in patent US20240158446A1, “CYCLIC COMPOUND HAVING SELECTIVE INHIBITORY ACTION ON KRAS OVER HRAS AND NRAS” (CHUGAI SEIYAKU KABUSHIKI KAISHA, priority 2021, published 2024).
Like-named read-outs stand apart in the source and are kept apart here. *1 amine or outer side, *2 acyl side, *3 side chain or, on linkers, in order; H or OH if unused. Where a SMILES comes first, the peptide text is derived from it. Bridges are numbered along the chain shown (N, C = ends). [ ]: non-standard residue; d: D form. The star is where a group is joined. hPhe(3,5-F2-4-CF3) = N[C@@H](CCc1cc(F)c(C(F)(F)F)c(F)c1)C(=O)O; hPhe(3-Cl-4-CF3) = N[C@@H](CCc1ccc(C(F)(F)F)c(Cl)c1)C(=O)O; X40 = CC(C)CN([C@@H](Cc1ccc(C(F)(F)F)cc1)C(=O)[*:2])[*:1]; NPrPhe(4-CF3) = CCCN[C@@H](Cc1ccc(C(F)(F)F)cc1)C(=O)O; NEtPhe(4-Me) = CCN[C@@H](Cc1ccc(C)cc1)C(=O)O; NMeGly(cPent) = CN[C@H](C(=O)O)C1CCCC1; Ac4c(3,3-F2) = NC1(C(=O)O)CC(F)(F)C1; NMeD = CN[C@@H](CC(=O)O)C(=O)O; NMeL = CN[C@@H](CC(C)C)C(=O)O; Morpholide = C1CN(*)CCO1; Ac5c = NC1(C(=O)O)CCCC1; NEtG = CCNCC(=O)O; Sar = CNCC(=O)O

Columns and labels:
[1] = molecular target: GDP-bound KRAS wild-type protein (Homo sapiens, UniProt P01116); test: Binding to KRAS by surface plasmon resonance (SPR), Single Cycle Kinetics; details: GDP-bound KRAS wild-type protein, read-out: KRAS KD
[2] = molecular target: GDP-bound NRAS wild-type protein (Homo sapiens, UniProt P01111); test: Binding to NRAS by surface plasmon resonance (SPR), Single Cycle Kinetics
[3] = molecular target: GDP-bound HRAS wild-type protein (Homo sapiens, UniProt P01112); test: Binding to HRAS by surface plasmon resonance (SPR), Single Cycle Kinetics
[4] = SPR Single Cycle Kinetics, 1:1 binding model
[5] = SPR, GDP-bound NRAS wild-type protein vs GDP-bound KRAS wild-type protein
[6] = SPR, GDP-bound HRAS wild-type protein vs GDP-bound KRAS wild-type protein

Sequence of GDP-bound HRAS wild-type protein (P01112 whole entry): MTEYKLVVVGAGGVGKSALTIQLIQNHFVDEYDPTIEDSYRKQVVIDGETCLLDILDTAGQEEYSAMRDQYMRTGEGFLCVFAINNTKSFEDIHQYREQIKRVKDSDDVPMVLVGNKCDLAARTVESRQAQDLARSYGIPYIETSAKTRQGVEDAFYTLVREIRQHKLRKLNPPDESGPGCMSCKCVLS
Sequence of GDP-bound NRAS wild-type protein (P01111 whole entry): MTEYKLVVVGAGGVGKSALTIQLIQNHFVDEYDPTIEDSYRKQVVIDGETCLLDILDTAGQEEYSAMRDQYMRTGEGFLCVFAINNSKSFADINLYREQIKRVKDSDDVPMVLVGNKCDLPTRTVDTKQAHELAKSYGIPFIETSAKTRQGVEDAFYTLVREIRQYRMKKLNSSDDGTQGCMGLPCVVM
Sequence of GDP-bound KRAS wild-type protein (P01116 whole entry): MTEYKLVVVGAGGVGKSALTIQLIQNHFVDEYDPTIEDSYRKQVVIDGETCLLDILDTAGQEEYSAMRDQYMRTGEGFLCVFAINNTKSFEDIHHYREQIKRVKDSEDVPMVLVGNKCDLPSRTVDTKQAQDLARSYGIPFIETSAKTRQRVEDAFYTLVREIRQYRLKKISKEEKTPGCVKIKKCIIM

| Structure (SMILES) | Kd [1, 4] | Kd ([1]; SPR, Single Cycle Kinetics) | NRAS/KRAS (ratio of KD value with respect to NRAS to KD value with respect to KRAS) [2, 5] | HRAS/KRAS (ratio of KD value with respect to HRAS to KD value with respect to KRAS) [3, 6] | NRAS/KRAS (ratio of KD value for NRAS to KD value for KRAS) [2, 5] | HRAS/KRAS (ratio of KD value for HRAS to KD value for KRAS) [3, 6] | NRAS/KRAS (ratio of KD value with respect to GDP-bound NRAS wild-type protein to KD value with respect to KRAS) ([2]; SPR KD ratio NRAS/KRAS, class symbols) | HRAS/KRAS (ratio of KD value with respect to GDP-bound HRAS wild-type protein to KD value with respect to KRAS) ([3]; SPR KD ratio HRAS/KRAS, class symbols) |
| --- | --- | --- | --- | --- | --- | --- | --- | --- |
| CCCN1C(=O)CN(C)C(=O)CN(C)C(=O)[C@H]([C@@H](C)CC)NC(=O)[C@H](CC(C)C)N(C)C(=O)C[C@@H](C(=O)N(C)C)N(C)C(=O)[C@H](C2CCCC2)N(C)C(=O)C2(CC(F)(F)C2)NC(=O)[C@@H]2CCCN2C(=O)[C@H](CCc2cc(F)c(C(F)(F)F)c(F)c2)NC(=O)CN(C)C(=O)[C@@H]1Cc1ccc(C(F)(F)F)cc1 [PP0745] ([NMeL]I[Sar][Sar][NPrPhe(4-CF3)][Sar][hPhe(3,5-F2-4-CF3)]P[Ac4c(3,3-F2)][NMeGly(cPent)][NMeD]-NMe2; lactam N-11) | 0.029 nM | – | B (a compound having 3 or more and less than 10 is denoted as B) | C (A compound having a KD ratio of 0.1 or more and less than 3 is denoted as C) | – | – | – | – |
| CC[C@H](C)[C@@H]1NC(=O)[C@H](CC(C)C)N(C)C(=O)C[C@@H](C(=O)N2CCOCC2)N(C)C(=O)[C@H](C2CCCC2)N(C)C(=O)C2(CCCC2)NC(=O)[C@@H]2CCCN2C(=O)[C@H](CCc2ccc(C(F)(F)F)c(Cl)c2)NC(=O)CN(C)C(=O)[C@H](Cc2ccc(C)cc2)N(CC)C(=O)CN(CC)C(=O)CN(C)C1=O [PP0027] ([NMeL]I[Sar][NEtG][NEtPhe(4-Me)][Sar][hPhe(3-Cl-4-CF3)]P[Ac5c][NMeGly(cPent)][NMeD]-Morpholide; lactam N-11) | 0.8 nM | – | – | – | C (A compound having a KD ratio of 0.1 or more and less than 3 is denoted as C) | C (A compound having a KD ratio of 0.1 or more and less than 3 is denoted as C) | – | – |
| CC[C@H](C)[C@@H]1NC(=O)[C@H](CC(C)C)N(C)C(=O)C[C@@H](C(=O)N2CCOCC2)N(C)C(=O)[C@H](C2CCCC2)N(C)C(=O)C2(CCCC2)NC(=O)[C@@H]2CCCN2C(=O)[C@H](CCc2ccc(C(F)(F)F)c(Cl)c2)NC(=O)CN(C)C(=O)[C@H](Cc2ccc(C(F)(F)F)cc2)N(CC(C)C)C(=O)CN(C)C(=O)CN(C)C1=O [PP0121] ([NMeL]I[Sar][Sar][X40][Sar][hPhe(3-Cl-4-CF3)]P[Ac5c][NMeGly(cPent)][NMeD]-Morpholide; lactam N-11) | 2.1 nM | – | – | – | C (A compound having a KD ratio of 0.1 or more and less than 3 is denoted as C) | C (A compound having a KD ratio of 0.1 or more and less than 3 is denoted as C) | – | – |

More lines, main results first:

| Kd [1, 4] | Kd ([1]; SPR, Single Cycle Kinetics) | Structure (SMILES) | NRAS/KRAS (ratio of KD value with respect to NRAS to KD value with respect to KRAS) [2, 5] | HRAS/KRAS (ratio of KD value with respect to HRAS to KD value with respect to KRAS) [3, 6] | NRAS/KRAS (ratio of KD value for NRAS to KD value for KRAS) [2, 5] | HRAS/KRAS (ratio of KD value for HRAS to KD value for KRAS) [3, 6] | NRAS/KRAS (ratio of KD value with respect to GDP-bound NRAS wild-type protein to KD value with respect to KRAS) ([2]; SPR KD ratio NRAS/KRAS, class symbols) | HRAS/KRAS (ratio of KD value with respect to GDP-bound HRAS wild-type protein to KD value with respect to KRAS) ([3]; SPR KD ratio HRAS/KRAS, class symbols) |
| --- | --- | --- | --- | --- | --- | --- | --- | --- |
| – | 0.23 nM | C#CC[C@H]1C(=O)N[C@@H]([C@@H](C)CC)C(=O)N(C)CC(=O)N(C)[C@H]2C/C=C\CCN(C2=O)[C@@H](Cc2ccc(C(F)(F)F)cc2)C(=O)N(C)CC(=O)N[C@@H](CCc2ccc(C(F)(F)F)c(Cl)c2)C(=O)N2CC3(CC3)C[C@H]2C(=O)NC2(CC(C)(C)C2)C(=O)N(C)[C@@H](C2CCCC2)C(=O)N(C)[C@H](C(=O)N(C)C)CC(=O)N1C [PP2980] | – | – | A (a compound having 10 or more and less than 20 is denoted as A) | B (a compound having 3 or more and less than 10 is denoted as B) | – | – |
| – | 0.2 nM | CCO[C@@H]1C[C@H]2C(=O)NC3(CC(C)(C)C3)C(=O)N(C)[C@@H](C(CC)CC)C(=O)N(C)[C@H](C(=O)N(C)C)CC(=O)N(C)[C@@H](CC(C)C)C(=O)N[C@@H]([C@@H](C)CC)C(=O)N(C)CC(=O)N(C)[C@H]3C/C=C\CCN(C3=O)[C@@H](Cc3ccc(C(F)(F)F)cc3)C(=O)N(C)CC(=O)N[C@@H](CCc3ccc(C(F)(F)F)c(OC)c3)C(=O)N2C1 [PP2161] | – | – | AA (a compound having 20 or more is denoted as AA) | A (a compound having 10 or more and less than 20 is denoted as A) | – | – |
| – | 0.95 nM | CC[C@H](C)[C@@H]1NC(=O)[C@H](CC(C)C)N(C)C(=O)C[C@@H](C)N(C)C(=O)[C@H](C2CCCC2)N(C)C(=O)C2(CCCC2)NC(=O)[C@@H]2CCCN2C(=O)[C@H](CCc2cc(F)c(C(F)(F)F)c(F)c2)NC(=O)CN(C)C(=O)[C@H](Cc2ccc(C(F)(F)F)cc2)N2CC/C=C\C[C@@H](C2=O)N(C)C(=O)CN(C)C1=O [PP1102] | – | – | B (a compound having 3 or more and less than 10 is denoted as B) | A (a compound having 10 or more and less than 20 is denoted as A) | – | – |
| 0.14 nM | – | CCC[C@H]1C(=O)N[C@@H]([C@@H](C)CC)C(=O)N(C)CC(=O)N(C)[C@H]2C/C=C\CCN(C2=O)[C@@H](Cc2ccc(C)cc2)C(=O)N(C)CC(=O)N[C@@H](CCc2ccc(Cl)c(C(F)(F)F)c2)C(=O)N2C[C@H](OCC)C[C@H]2C(=O)NC2(CC(C)(C)C2)C(=O)N(C)[C@@H](C2CCCC2)C(=O)N(C)[C@H](C(=O)N(C)C)CC(=O)N1C [PP2786] | – | – | – | – | A (a compound having 10 or more and less than 20 is denoted as A) | A (a compound having 10 or more and less than 20 is denoted as A) |
